Assay results reported in patent US20220378773A1, “METHODS FOR TREATING LEUKEMIA AND USE OF A LEUKEMIC STEM CELL SIGNATURE TO PREDICT CLINICAL SENSITIVITY TO THERAPIES” (CELGENE CORPORATION, priority 2019, published 2022).
“Also recorded” adds a separate entry of the source. Marks after values point to notes of the source that are not given here.

Experiments:
[1] = tested on: primary acute myeloid leukemia blasts; experiment: In vitro apoptosis (Annexin V) and cell count of primary AML blasts; format: cell-based, human
Procedure: Annexin V-PE apoptosis detection kit (BD Pharmingen, BD Bioscience, USA) was used to assess apoptosis.
Cell Culture: Materials used for in vitro assays of AML cells included X-VIVO 10 medium supplemented with 15% BIT, and growth factors including 100 ng/mL of stem cell factor, 20 ng/mL of IL-6, 20 ng/mL of G-CSF, 20 ng/mL of IL-3, 100 ng/mL of Flt 3 ligand (each provided by Amgen, USA), 20 ng/mL of GM-CSF (R&D Systems, USA), and 50 ng/mL of thrombopoietin (Kirin Brewery, Japan).
Assay Procedure: After 4 and 24 hours of in vitro culture with DMSO or Compound D, cells were harvested for GSPT1 expression and apoptosis. Levels of GSPT1 were analyzed by flow cytometry using median fluorescence intensity (MFI) and normalized against DMSO controls. Apoptosis was also analyzed by flow cytometry and measured as percentage of cells which were positive for cleaved caspase 3/7.
Viably frozen primary leukemia cells were thawed and plated in suspension culture in the Iscove's Modified Dulbecco's Medium plus 15% BIT Serum Substitute (Stem Cell Technology, Canada), supplemented with multiple human growth factors. Compound D was added to the culture at indicated concentrations.
For GSPT1 expression, intracellular flow cytometry (FACS) was performed at 24 hours in culture by staining cells with GSPT1 conjugated with Alexa Fluor 647. For apoptosis, cells were harvested at 24 hours in culture and stained with Annexin V-PE and 7-aminoactinomycin D (7AAD) (BD Biosciences, USA).

[2] = tested on: AML graft (human CD45+CD33+ cells); experiment: AML xenograft efficacy, 2.5 mg/kg IP twice daily; format: in vivo, NOD/SCID mice; settings: AML Patient 90668; 500,000 cells per mouse; dosing from Day 21
[3] = tested on: leukemic stem cells (LSCs); experiment: Secondary xenograft limiting dilution assay (LDA); format: in vivo, NOD/SCID mice; settings: for Fold reduction of LSC frequency by Compound D: relative to vehicle; for No. mice engrafted/No. mice transplanted: from Compound D-treated primary mice
Procedure: Secondary xenograft limiting dilution assay: To determine whether Compound D targeted leukemia stem cells with self-renewal ability, which are considered to contribute to leukemia progression, therapy-resistance, and relapse, secondary transplantation was performed using LDA. Limiting dilution assays are designed to define an unknown frequency of LSCs in the total leukemia graft of primary mice. LDA analysis in secondary transplantation will allow quantitative determination whether Compound D targets LSCs with self-renewal ability in primary mice. For this, multiple cell doses were used for secondary transplant to achieve both a positive response (engrafted mice at high cell doses) and a negative response (non-engrafted mice at lowest cell dose). Four different AML cell doses for each treated group (1 million, 500,000, 50,000 and 2000 cells/mouse) with 5 mice per cell dose, totally 40 mice for each AML graft sample. For any sample that was considered aggressive, LDA was performed with lower cell doses. The frequency of LSCs was analyzed using the Walter and Eliza Hall Institute (WEHI) bioinformatics extreme limiting dilution analysis (ELDA) software (bioinf.wehi.edu.au).
For secondary transplant NOD/SCID mice were sublethally irradiated (275 cGy) and pretreated with anti-CD122 antibody (200 μg/mouse) to deplete residual host natural killer cells. On the day of transplantation, viably frozen cells harvested from the vehicle- or Compound D-treated primary mice were thawed, counted, mouse-cell depleted (Mouse Cell Depletion Kit, Miltenyi Biotec, USA), and transplanted intrafemorally into the pretreated secondary mice at limiting doses described above. For secondary transplant without LDA, thawed cells were not depleted of mouse cells before transplantation. At 12 weeks post secondary transplantation, mice were euthanized, and bone marrow was collected and analyzed.
Limiting dilution assay: Limiting dilution assays were used to define the frequency of leukemia stem cells in the total leukemia graft of the primary mice. Therefore, analysis of LDA in secondary transplantation will allow quantitative determination whether Compound D targets leukemia stem cells with self-renewal ability in primary mice. For this, multiple cell doses were used for secondary transplant to achieve both a positive response (engrafted mice at high cell doses) and a negative response (non-engrafted mice at lowest cell dose). Four different AML cell doses for each treated group were used (1 million, 500,000, 50,000 and 2000 cells/mouse) with 5 mice per cell dose, totally 40 mice for each leukemia graft sample. For any sample that was considered aggressive, LDA was performed with lower cell doses. The frequency of LSCs was analyzed using the Walter and Eliza Hall Institute (WEHI) bioinformatics extreme limiting dilution analysis (ELDA) software (bioinfwehi.edu.au).
Intrafemoral transplantation: One day prior to transplantation, NOD/SCID mice were sublethally irradiated (275 cGy) and pretreated with anti-CD122 antibody (200m/mouse) to deplete residual host natural killer cells. On the day of transplantation, viably frozen cells harvested from combined vehicle- or Compound D-treated (2.5 mg/kg intraperitoneally twice daily for 14 days, Section 6.1) primary mice were thawed, counted, mouse cell depleted, and transplanted intrafemorally into the pretreated secondary mice at limiting doses in a total volume of 30 μl. For the Compound D-treated samples with low human AML engraftment 25%), cells from both RF and BM were combined and 2 rounds of mouse depletion were performed to ensure a high human AML cell purity. […] Mouse cell depletion was performed following the instructions provided by Miltenyi Biotec (Mouse Cell Depletion Kit, catalogue number 130-104-694, Miltenyi Biotec, Germany). […]

O=C1CCC(N2Cc3cc(CNC(=O)C(F)(F)c4ccc(Cl)cc4)ccc3C2=O)C(=O)N1 (stereo not drawn) [Compound D, 2-(4-chlorophenyl)-N-((2-(2,6-dioxopiperidin-3-yl)-1-oxoisoindolin-5-yl)methyl)-2,2-difluoroacetamide]
apoptosis ([1]; 4 hours): not observed
apoptosis, high vs low LSC17 score samples ([1]; 24 hours): induced apoptosis at higher levels in samples with high LSC17 scores
induction of apoptosis, number of samples ([1]; 24 hours, concentration-dependent): observed in 3 of the 10 samples tested
live cells ([1]; Section 6.3 samples): reduction of live cells
apoptosis ([1]; Section 6.3 samples, 24 hours): Increased apoptosis
cell numbers ([1]; with increased concentration, 24 hours): reduced cell numbers for most samples
survival [2]: did not improve survival
AML engraftment in secondary mice ([3]; AML 90191, cells from Compound D primary-treated mice, about 12 weeks): no AML engraftment
leukemia graft in secondary mice vs vehicle-treated cells ([3]; AML 110500): much lower leukemia graft
LSC frequency, vehicle- vs Compound D-treated primary mice ([3]; AML 120860, non-injected BM data): no difference in LSC frequency; also recorded: no difference for LSC frequency
LSC frequency increase following treatment ([3]; AML Patient 110484): 1.6 fold
LSC frequency increase following treatment ([3]; AML Patient 120846): 1.8 fold
LSC frequency increase following treatment ([3]; AML Patient 120860): 1.3 fold
LSC frequency increase following treatment ([3]; AML Patient 130695): 12.6 fold
LSC frequency ([3]; AML Patient 130926 (responder)): did not reduce LSC frequency
LSC frequency (1/total number), Compound D ([3]; Patient 598, cells from RF of treated primary mice): 675569 1/total number
Fold reduction of LSC frequency by Compound D ([3]; Patient 598): 2.1 fold
LSC frequency (1/total number), Compound D ([3]; Patient 90191, cells from RF + BM of treated primary mice): Not engrafted
LSC frequency (1/total number), Compound D ([3]; Patient 100348, cells from RF + BM of treated primary mice): 923814 1/total number
Fold reduction of LSC frequency by Compound D ([3]; Patient 100348): 4.0 fold
LSC frequency (1/total number), Compound D ([3]; Patient 110484, cells from RF of treated primary mice): 1153831 1/total number
Fold reduction of LSC frequency by Compound D ([3]; Patient 110484, negative sign = increase): −1.6 ^a fold
LSC frequency (1/total number), Compound D ([3]; Patient 110500, cells from RF of treated primary mice): 356239 1/total number
LSC frequency (1/total number), Compound D ([3]; Patient 120791, cells from RF + BM of treated primary mice): Not engrafted
LSC frequency (1/total number), Compound D ([3]; Patient 120846, cells from RF of treated primary mice): 14523 1/total number
Fold reduction of LSC frequency by Compound D ([3]; Patient 120846, negative sign = increase): −1.8 ^a fold
LSC frequency (1/total number), Compound D ([3]; Patient 120860, cells from BM of treated primary mice): 65626 1/total number
Fold reduction of LSC frequency by Compound D ([3]; Patient 120860, negative sign = increase): −1.3 ^a fold
LSC frequency (1/total number), Compound D ([3]; Patient 120899, cells from BM of treated primary mice): 27120 1/total number
Fold reduction of LSC frequency by Compound D ([3]; Patient 120899): 4.0 fold
LSC frequency (1/total number), Compound D ([3]; Patient 121020, cells from RF+BM of treated primary mice): 7562084 1/total number
Fold reduction of LSC frequency by Compound D ([3]; Patient 121020): 1.5 fold
No. mice engrafted/No. mice transplanted ([3]; Patient 130578, 5000 cells transplanted/mouse): 0/5
No. mice engrafted/No. mice transplanted ([3]; Patient 130578, 20000 cells transplanted/mouse): 0/5
No. mice engrafted/No. mice transplanted ([3]; Patient 130578, 50000 cells transplanted/mouse): 2/5
No. mice engrafted/No. mice transplanted ([3]; Patient 130578, 120000 cells transplanted/mouse): 2/3
Fold reduction of LSC frequency by Compound D ([3]; Patient 130578): 9.4 fold
LSC frequency (1/total number), Compound D ([3]; Patient 130695, cells from RF of treated primary mice): 36696 1/total number
Fold reduction of LSC frequency by Compound D ([3]; Patient 130695, negative sign = increase): −12.6*** ^a fold
LSC frequency (1/total number), Compound D ([3]; Patient 130712, cells from BM of treated primary mice): 758064 1/total number
Fold reduction of LSC frequency by Compound D ([3]; Patient 130712): 2.7 fold
LSC frequency (1/total number), Compound D ([3]; Patient 130926, cells from RF + BM of treated primary mice): 1207241 1/total number
Fold reduction of LSC frequency by Compound D ([3]; Patient 130926): 1.0 fold
LSC frequency (1/total number), Compound D ([3]; Patient 140171, cells from RF + BM of treated primary mice): Not engrafted
responsive leukemia samples with LSCs targeted ([3]; mouse, in vivo): 6 out of 10 samples
